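Exposure lasted 48 hours, with cells grown in 96-well plates and compounds tested at five concentrations. GI50: concentration for 50% inhibition of growth.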 Active and inactive are the calls of the source. No stated cut-off is given here; in the data, active = GI50 up to about 1.1 µM and inactive = higher.
Assays:
Assay in all cases: NCI tumour cell line growth inhibition, 48 h
UACC-257 = tested on: UACC-257
TK-10 = tested on: TK-10
NCI-H460 = tested on: NCI-H460
UACC-62 = tested on: UACC-62
OVCAR-4 = tested on: OVCAR-4
MCF7 = tested on: MCF7
K562 = tested on: K562
HCT-116 = tested on: HCT-116
SNB-75 = tested on: SNB-75
NCI-H522 = tested on: NCI-H522
MDA-MB-435 = tested on: MDA-MB-435
SW-620 = tested on: SW-620
A498 = tested on: A498
MDA-MB-231 = tested on: MDA-MB-231
COLO 205 = tested on: COLO 205
EKVX = tested on: EKVX
HL-60 = tested on: HL-60
U-251 = tested on: U-251
RXF 393 = tested on: RXF 393
786-0 = tested on: 786-0

Row | Structure (SMILES) | GI50 (UACC-257) | GI50 (TK-10) | GI50 (NCI-H460) | GI50 (UACC-62) | GI50 (OVCAR-4) | GI50 (MCF7) | GI50 (K562) | GI50 (HCT-116) | GI50 (SNB-75) | GI50 (NCI-H522) | GI50 (MDA-MB-435) | GI50 (SW-620) | GI50 (A498) | GI50 (MDA-MB-231) | GI50 (COLO 205) | GI50 (EKVX) | GI50 (HL-60) | GI50 (U-251) | GI50 (RXF 393) | GI50 (786-0)
1 | Clc1ccc(-c2nnc(-c3cccc4ccccc34)o2)cc1Cl | > 100 µM (inactive) | > 100 µM (inactive) | > 100 µM (inactive) | > 100 µM (inactive) | 98.4 µM (inactive) | > 100 µM (inactive) | > 100 µM (inactive) | > 100 µM (inactive) | > 100 µM (inactive) | > 100 µM (inactive) | > 100 µM (inactive) | > 100 µM (inactive) | > 100 µM (inactive) | > 100 µM (inactive) | > 100 µM (inactive) | > 100 µM (inactive) | 1.03 µM (active) | > 100 µM (inactive) | > 100 µM (inactive) | > 100 µM (inactive)
2 | OC(c1cc(-c2ccc(Cl)cc2)nc2ccccc12)C1CCCCN1 (stereo not given) | 2.66 µM (inactive) | 4.32 µM (inactive) | 2.08 µM (inactive) | 1.82 µM (inactive) | 2.28 µM (inactive) | 1.82 µM (inactive) | 1.48 µM (inactive) | 1.92 µM (inactive) | 2.43 µM (inactive) | 1.27 µM (inactive) | 2.09 µM (inactive) | 1.88 µM (inactive) | 1.82 µM (inactive) | 1.95 µM (inactive) | 1.73 µM (inactive) | 2.14 µM (inactive) | 2.39 µM (inactive) | 1.84 µM (inactive) | 0.368 µM (active) | 1.93 µM (inactive)
3 | CN(C)CCn1c(=O)c2ccc(NCCCN(C)CCCNc3ccc4c(=O)n(CCN(C)C)c(=O)n5c6ccc([N+](=O)[O-])cc6c(=O)c3c45)c3c(=O)c4cc([N+](=O)[O-])ccc4n(c1=O)c23 | 0.069 µM (active) | < 0.0143 µM (active) | < 0.01 µM (active) | < 0.0246 µM (active) | < 0.01 µM (active) | < 0.01 µM (active) | < 0.01 µM (active) | < 0.01 µM (active) | < 0.01 µM (active) | < 0.01 µM (active) | < 0.0173 µM (active) | < 0.0112 µM (active) | 0.0478 µM (active) | < 0.021 µM (active) | < 0.01 µM (active) | 0.0411 µM (active) | < 0.027 µM (active) | < 0.01 µM (active) | 0.0122 µM (active) | < 0.01 µM (active)
4 | Cn1c(=O)c2c(nc3n(Cc4ccccc4)c(=O)c(NCCBr)cn23)n(C)c1=O | 25.7 µM (inactive) | 16.3 µM (inactive) | 26.9 µM (inactive) | 26.5 µM (inactive) | 16.3 µM (inactive) | 24.4 µM (inactive) | 46 µM (inactive) | 28.8 µM (inactive) | 20 µM (inactive) | 22.2 µM (inactive) | 49.5 µM (inactive) | 90.6 µM (inactive) | 34.9 µM (inactive) | 26.5 µM (inactive) | 49.1 µM (inactive) | 18.5 µM (inactive) | 38.8 µM (inactive) | 30.4 µM (inactive) | 14.9 µM (inactive) | 19.3 µM (inactive)
5 | NS(=O)(=O)c1ccc(NNc2c3ccccc3nc3ccccc23)cc1 | 13.2 µM (inactive) | 18.8 µM (inactive) | 12.2 µM (inactive) | 12.3 µM (inactive) | 10.5 µM (inactive) | 10.9 µM (inactive) | 7.89 µM (inactive) | 10.8 µM (inactive) | 12.9 µM (inactive) | 11.4 µM (inactive) | 12.4 µM (inactive) | 10.9 µM (inactive) | 18.3 µM (inactive) | 15.6 µM (inactive) | 7.29 µM (inactive) | 12.5 µM (inactive) | 8.63 µM (inactive) | 11.7 µM (inactive) | 13.2 µM (inactive) | 12.6 µM (inactive)
6 | C=C1C(=O)OC2/C=C(/CO)C3(O)CC(O)C(C)(CC(OC(=O)/C(C)=C/C)C12)O3 (stereo not given) | 15.4 µM (inactive) | 11.9 µM (inactive) | 14.9 µM (inactive) | 6.62 µM (inactive) | 22.3 µM (inactive) | 6.73 µM (inactive) | 4.47 µM (inactive) | 6.73 µM (inactive) | 39.2 µM (inactive) | 2.4 µM (inactive) | 9.42 µM (inactive) | 3.33 µM (inactive) | 20.9 µM (inactive) | 15.3 µM (inactive) | 4.73 µM (inactive) | 18.8 µM (inactive) | 6.21 µM (inactive) | 18.5 µM (inactive) | 2.81 µM (inactive) | 10.1 µM (inactive)
7 | CN1CCN(C(=O)c2cn(Cc3cncn3Cc3ccc4c(c3)OCO4)cc2-c2cccc3ccccc23)CC1 | 14 µM (inactive) | 29.1 µM (inactive) | 2.46 µM (inactive) | 7.96 µM (inactive) | 22.3 µM (inactive) | 14.2 µM (inactive) | 3.32 µM (inactive) | 4.89 µM (inactive) | 14.7 µM (inactive) | 5.86 µM (inactive) | 0.198 µM (active) | 13.9 µM (inactive) | 0.883 µM (active) | 9.25 µM (inactive) | 14.7 µM (inactive) | 15.3 µM (inactive) | 0.337 µM (active) | 7.73 µM (inactive) | 30 µM (inactive) | 20.9 µM (inactive)
8 | COc1ccc2c(c1)NC1(CCN(CCCC(=O)c3ccc(F)cc3)CC1)N=N2 | 17.6 µM (inactive) | 20.7 µM (inactive) | 26.1 µM (inactive) | 20.9 µM (inactive) | 27.4 µM (inactive) | 17.4 µM (inactive) | 19.4 µM (inactive) | 17.1 µM (inactive) | 15.1 µM (inactive) | 16.9 µM (inactive) | 15.8 µM (inactive) | 23.8 µM (inactive) | 28.4 µM (inactive) | 22.5 µM (inactive) | 14.5 µM (inactive) | 32.2 µM (inactive) | 15.2 µM (inactive) | 19.2 µM (inactive) | 16.6 µM (inactive) | 19.3 µM (inactive)
9 | CCCCCCCCC/C=C/C=C/C(=O)NCC(=O)NC1C(O)C(O)C(Nc2ncnc3[nH]cnc23)OC1C(O)CO (stereo not given) | 0.00444 µM (active) | 0.00208 µM (active) | 0.00189 µM (active) | 0.00507 µM (active) | 0.00115 µM (active) | 0.668 µM (active) | 0.063 µM (active) | 0.00323 µM (active) | 0.00125 µM (active) | 0.00532 µM (active) | 0.0255 µM (active) | 0.00156 µM (active) | 0.00468 µM (active) | 0.0538 µM (active) | 0.001 µM (active) | 0.126 µM (active) | 0.00159 µM (active) | 0.00149 µM (active) | 0.00401 µM (active) | 0.00217 µM (active)
10 | COC(C(=O)C(O)C(C)O)C1CC2C=C3C=C(OC4CC(OC5CC(O)C(OC)C(C)O5)C(OC(C)=O)C(C)O4)C(C)C(O)=C3C(O)=C2C(=O)C1OC1CC(OC2CC(OC3CC(C)(O)C(OC(=O)C(C)C)C(C)O3)C(O)C(C)O2)C(O)C(C)O1 (stereo not given) | < 0.01 µM (active) | < 0.01 µM (active) | < 0.01 µM (active) | < 0.01 µM (active) | < 0.01 µM (active) | < 0.01 µM (active) | < 0.01 µM (active) | < 0.01 µM (active) | < 0.01 µM (active) | < 0.01 µM (active) | < 0.01 µM (active) | < 0.01 µM (active) | < 0.01 µM (active) | < 0.01 µM (active) | < 0.01 µM (active) | < 0.01 µM (active) | < 0.01 µM (active) | < 0.01 µM (active) | < 0.01 µM (active) | < 0.01 µM (active)
11 | C=C1CC2(CC(c3ccccc3C)OC(c3ccccc3C)C2)OC1=O (stereo not given) | 1.78 µM (inactive) | 1.74 µM (inactive) | 2.96 µM (inactive) | 1.54 µM (inactive) | 2.27 µM (inactive) | 1.85 µM (inactive) | 2.15 µM (inactive) | 1.82 µM (inactive) | 3.23 µM (inactive) | 1.73 µM (inactive) | 1.71 µM (inactive) | 1.73 µM (inactive) | 8.99 µM (inactive) | 1.6 µM (inactive) | 1.9 µM (inactive) | 16.1 µM (inactive) | 1.6 µM (inactive) | 12.9 µM (inactive) | 2.29 µM (inactive) | 1.96 µM (inactive)
12 | CC1C(=O)OC2CC[N+]3([O-])CC=C(COC(=O)C(C)(O)C1(C)O)C23 (stereo not given) | > 100 µM (inactive) | > 100 µM (inactive) | > 100 µM (inactive) | > 100 µM (inactive) | > 100 µM (inactive) | > 100 µM (inactive) | > 100 µM (inactive) | > 100 µM (inactive) | > 100 µM (inactive) | > 100 µM (inactive) | > 100 µM (inactive) | > 100 µM (inactive) | > 100 µM (inactive) | > 100 µM (inactive) | > 100 µM (inactive) | > 100 µM (inactive) | > 100 µM (inactive) | > 100 µM (inactive) | > 100 µM (inactive) | > 100 µM (inactive)
13 | CCCCn1c(O)nc2c(N)ncnc21 | > 100 µM (inactive) | > 100 µM (inactive) | > 100 µM (inactive) | > 100 µM (inactive) | > 100 µM (inactive) | > 100 µM (inactive) | > 100 µM (inactive) | > 100 µM (inactive) | > 100 µM (inactive) | > 100 µM (inactive) | > 100 µM (inactive) | > 100 µM (inactive) | > 100 µM (inactive) | > 100 µM (inactive) | > 100 µM (inactive) | 92.9 µM (inactive) | > 100 µM (inactive) | > 100 µM (inactive) | > 100 µM (inactive) | > 100 µM (inactive)
14 | CCc1nc(N)nc(N)c1-c1ccc(N(C)Cc2ccccc2)c([N+](=O)[O-])c1 | 2.58 µM (inactive) | 7.13 µM (inactive) | < 0.01 µM (active) | 0.0357 µM (active) | 5.15 µM (inactive) | 0.202 µM (active) | < 0.01 µM (active) | < 0.01 µM (active) | 2.22 µM (inactive) | 1.15 µM (inactive) | 0.0811 µM (active) | 0.0155 µM (active) | 0.552 µM (active) | 7.67 µM (inactive) | 0.522 µM (active) | 1.16 µM (inactive) | < 0.01 µM (active) | 0.0374 µM (active) | 3.61 µM (inactive) | 0.0231 µM (active)

From ChEMBL document CHEMBL1201862, “PubChem BioAssay data set” (2004)
